The subject of the experiment is THP-1 ISG reporter cells. Put plainly: THP-1 ISG reporter cell assay in the context of cGAMP delivery. In kind it is cell-based. Conditions: free cGAMP, dashed line in FIG. 10C; read-out: Half-maximal response of cGAMP. From the text: The graft copolymers disclosed herein were next tested for bioactivity and drug delivery properties. As illustrated in FIGS. 9A-B, hemolysis, a measure of endosomolytic activity, increases with increasing MW and decreases with increasing hydrophilic weight fraction. Turning to FIGS. 10A-D, THP-1 ISG reporter cells were used to determine cellular uptake and cGAMP delivery.

Structures are written as SMILES.

For `Nc1nc2c(ncn2[C@@H]2O[C@@H]3COP(=O)(O)O[C@H]4[C@@H](O)[C@H](n5cnc6c(N)ncnc65)O[C@@H]4COP(=O)(O)O[C@@H]2[C@@H]3O)c(=O)[nH]1` [cGAMP], the EC50 amounted to 40 µM.

These data come from patent US12508233B2, “Graft copolymers, methods of forming graft copolymers, and methods of use thereof” (Vanderbilt University, priority 2018, dated 2025).
